Measured values as given in PubChem BioAssay AID248 (DTP/NCI, 2004).
Where “and” joins values, the source holds several entries; their conditions need not be identical. Equal entries are not always repeated. Inconclusive results and toxic doses are left out. No stated cut-off is given here; in the data, active means T/C of 150% or more; inactive means T/C below 125%.

Test system: L1210 leukemia ip in BDF1 mice, survival T/C
Test: NCI In Vivo Anticancer Drug Screen. Data for tumor model L1210 Leukemia (intraperitoneal) in B6D2F1 (BDF1) mice
Conditions: endpoint: mean survival time, higher = longer survival
In short: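 Each compound was tested against a transplantable tumor grown in mice. The endpoint was survival, with treated animals benchmarked against vehicle controls as a simple ratio.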

[1] = dose: 50.0 mg/kg/injection, schedule: Q01DX009 (ip), vehicle: Klucel (hydroxypropylcellulose) (HPC)
[2] = dose: 100.0 mg/kg/injection, schedule: Q04DX002 (ip), vehicle: Klucel (hydroxypropylcellulose) (HPC)
[3] = dose: 200.0 mg/kg/injection, schedule: Q04DX002 (ip), vehicle: Klucel (hydroxypropylcellulose) (HPC)
[4] = dose: 100.0 mg/kg/injection, schedule: Q01DX009 (ip), vehicle: Klucel (hydroxypropylcellulose) (HPC)
[5] = dose: 200.0 mg/kg/injection, schedule: Q01DX009 (ip), vehicle: Klucel (hydroxypropylcellulose) (HPC)
[6] = dose: 25.0 mg/kg/injection, schedule: Q04DX003 (ip), vehicle: saline
[7] = dose: 50.0 mg/kg/injection, schedule: Q04DX003 (ip), vehicle: saline
[8] = dose: 100.0 mg/kg/injection, schedule: Q01DX009 (ip), vehicle: saline
[9] = dose: 200.0 mg/kg/injection, schedule: Q01DX009 (ip), vehicle: saline
[10] = dose: 400.0 mg/kg/injection, schedule: Q01DX009 (ip), vehicle: saline
[11] = dose: 100.0 mg/kg/injection, schedule: Q01DX001 (ip), vehicle: saline
[12] = dose: 200.0 mg/kg/injection, schedule: Q01DX001 (ip), vehicle: saline
[13] = dose: 400.0 mg/kg/injection, schedule: Q01DX001 (ip), vehicle: saline
[14] = dose: 100.0 mg/kg/injection, schedule: Q04DX002 (ip), vehicle: gum acacia
[15] = dose: 200.0 mg/kg/injection, schedule: Q04DX002 (ip), vehicle: gum acacia

Measured: T/C

COc1c([N+](=O)[O-])cc2c(c1C)OCOC2
inactive: dose: 12.5 mg/kg/injection, schedule: Q01DX009 (ip), vehicle: Klucel (hydroxypropylcellulose) (HPC) 95 % of control | dose: 25.0 mg/kg/injection, schedule: Q01DX009 (ip), vehicle: Klucel (hydroxypropylcellulose) (HPC) 95 % of control | [1] 95 % of control | dose: 100.0 mg/kg/injection, schedule: Q01DX001 (ip), vehicle: Klucel (hydroxypropylcellulose) (HPC) 92 % of control | dose: 200.0 mg/kg/injection, schedule: Q01DX001 (ip), vehicle: Klucel (hydroxypropylcellulose) (HPC) 93 % of control | dose: 400.0 mg/kg/injection, schedule: Q01DX001 (ip), vehicle: Klucel (hydroxypropylcellulose) (HPC) 102 % of control

CN(C)C(=S)[S][Pb]([S]C(=S)N(C)C)([c]1ccccc1)[c]1ccccc1
inactive: dose: 100.0 mg/kg/injection, schedule: Q01DX001 (ip), vehicle: steriod suspending solution 114 % of control | dose: 200.0 mg/kg/injection, schedule: Q01DX001 (ip), vehicle: steriod suspending solution 111 % of control | dose: 400.0 mg/kg/injection, schedule: Q01DX001 (ip), vehicle: steriod suspending solution 109 % of control

COc1ccc(C=Nc2ccccc2C(=O)O)cc1
inactive: dose: 100.0 mg/kg/injection, schedule: Q01DX001 (ip), vehicle: saline with Tween-80 108 % of control | dose: 200.0 mg/kg/injection, schedule: Q01DX001 (ip), vehicle: saline with Tween-80 105 % of control | dose: 400.0 mg/kg/injection, schedule: Q01DX001 (ip), vehicle: saline with Tween-80 93 % of control

O=C1Nc2ccccc2C1Cc1cc2c(nn1)[nH]c1ccccc12 (configuration not stated)
inactive: dose: 12.5 mg/kg/injection, schedule: Q04DX002 (ip), vehicle: Klucel (hydroxypropylcellulose) (HPC) 95 % of control | dose: 25.0 mg/kg/injection, schedule: Q04DX002 (ip), vehicle: Klucel (hydroxypropylcellulose) (HPC) 106 % of control | dose: 50.0 mg/kg/injection, schedule: Q04DX002 (ip), vehicle: Klucel (hydroxypropylcellulose) (HPC) 103 % of control | [2] 122 % of control | [3] 96 % of control | dose: 400.0 mg/kg/injection, schedule: Q04DX002 (ip), vehicle: Klucel (hydroxypropylcellulose) (HPC) 92 % of control

NC(Cc1cnc(N=Nc2ccc(S(=O)(=O)N(CCCl)CCCl)cc2)[nH]1)C(=O)O (configuration not stated)
inactive: [1] 93 % of control | [4] 90 % of control | [5] 97 % of control

CC(C)(C)C(=O)C#Cc1ccccc1
inactive: [6] 102 % of control | [7] 96 % of control | dose: 100.0 mg/kg/injection, schedule: Q04DX003 (ip), vehicle: saline 89 % of control

COc1cc(Cl)ccc1NC(=O)Oc1ccc(C(=O)OCc2ccccc2)cc1
inactive: [8] 103 % of control | [9] 97 % of control | [10] 111 % of control

CC(C)C(=O)c1ccc([N+](=O)[O-])o1
inactive: dose: 100.0 mg/kg/injection, schedule: Q01DX009 (ip), vehicle: saline with Tween-80 94 % of control | dose: 100.0 mg/kg/injection, schedule: Q04DX003 (ip), vehicle: saline with Tween-80 99 % of control | dose: 200.0 mg/kg/injection, schedule: Q01DX009 (ip), vehicle: saline with Tween-80 96 % of control | dose: 200.0 mg/kg/injection, schedule: Q04DX003 (ip), vehicle: saline with Tween-80 99 % of control | dose: 400.0 mg/kg/injection, schedule: Q04DX003 (ip), vehicle: saline with Tween-80 88 % of control

Nc1nc(N)nc(-c2ccncc2)n1
inactive: dose: 50.0 mg/kg/injection, schedule: Q01DX009 (ip), vehicle: saline with Tween-80 119 % of control

CC(C)Oc1ccc(C(=O)NS(=O)(=O)c2ccc(N)cc2)cc1
inactive: [11] 101 % of control | [8] 91 % of control | [12] 101 % of control | [9] 103 % of control | [13] 100 % of control | [10] 100 % of control

O=C(O)c1cc(Br)cc(Cl)c1Cl
inactive: [2] 100 % of control | [3] 103 % of control

O=C1NCC(Nc2ccccc2Cl)C(=O)N1 (configuration not stated)
inactive: dose: 100.0 mg/kg/injection, schedule: Q01DX Z (ip), vehicle: saline 96 % of control

COC1(OC)C2(Cl)CC(=O)C3CC(=O)C3C1(Cl)C(Cl)=C2Cl (configuration not stated)
inactive: [1] 92 % of control | [11] 100 % of control | [4] 94 % of control | [12] 94 % of control | [5] 102 % of control | [13] 101 % of control

O=C1c2ccccc2C(=O)N1CCCCCCN1C(=O)c2ccccc2C1=O
inactive: [14] 96 % of control | [15] 107 % of control | dose: 400.0 mg/kg/injection, schedule: Q04DX002 (ip), vehicle: gum acacia 101 % of control

CCc1occ(C(=O)OC)c1C1SCCS1
inactive: [11] 92 % of control | [12] 97 % of control | [13] 91 % of control

Nc1c(Br)cc2c(c1Br)C(=O)c1cc(Br)ccc1-2
inactive: dose: 100.0 mg/kg/injection, schedule: Q01DX001 (ip), vehicle: carboxymethylcellulose (CMC) 92 % of control | dose: 200.0 mg/kg/injection, schedule: Q01DX001 (ip), vehicle: carboxymethylcellulose (CMC) 94 % of control | dose: 400.0 mg/kg/injection, schedule: Q01DX001 (ip), vehicle: carboxymethylcellulose (CMC) 97 % of control

COCCCNP(=O)(OC(C)C)OC(C)C
inactive: dose: 100.0 mg/kg/injection, schedule: Q01DX001 (ip), vehicle: acetone 109 % of control | dose: 100.0 mg/kg/injection, schedule: Q04DX003 (ip), vehicle: acetone 97 % of control | dose: 200.0 mg/kg/injection, schedule: Q01DX001 (ip), vehicle: acetone 98 % of control | dose: 200.0 mg/kg/injection, schedule: Q04DX003 (ip), vehicle: acetone 95 % of control | dose: 400.0 mg/kg/injection, schedule: Q01DX001 (ip), vehicle: acetone 110 % of control | dose: 400.0 mg/kg/injection, schedule: Q04DX003 (ip), vehicle: acetone 95 % of control

Nc1ccccc1SC1CC(=O)N(c2cccc(Cl)c2)C1=O (configuration not stated)
inactive: [4] 91 % of control | dose: 100.0 mg/kg/injection, schedule: Q04DX003 (ip), vehicle: Klucel (hydroxypropylcellulose) (HPC) 94 % of control | [5] 92 % of control | dose: 200.0 mg/kg/injection, schedule: Q04DX003 (ip), vehicle: Klucel (hydroxypropylcellulose) (HPC) 95 % of control | dose: 400.0 mg/kg/injection, schedule: Q01DX009 (ip), vehicle: Klucel (hydroxypropylcellulose) (HPC) 91 % of control | dose: 400.0 mg/kg/injection, schedule: Q04DX003 (ip), vehicle: Klucel (hydroxypropylcellulose) (HPC) 94 % of control

NNC12CC3CC(CC(C3)C1)C2
inactive: dose: 1.56 mg/kg/injection, schedule: Q01DX009 (ip), vehicle: saline 100 % of control | dose: 3.12 mg/kg/injection, schedule: Q01DX009 (ip), vehicle: saline 100 % of control | dose: 6.25 mg/kg/injection, schedule: Q01DX009 (ip), vehicle: saline 100 % of control | dose: 12.5 mg/kg/injection, schedule: Q01DX009 (ip), vehicle: saline 110 % of control and 90 % of control | dose: 12.5 mg/kg/injection, schedule: Q04DX003 (ip), vehicle: saline 105 % of control | [6] 118 % of control | [7] 96 % of control

COC(=O)C[As+](c1ccccc1)(c1ccccc1)c1ccccc1
inactive: dose: 38.0 mg/kg/injection, schedule: Q04DX003 (ip), vehicle: saline 91 % of control | dose: 75.0 mg/kg/injection, schedule: Q04DX003 (ip), vehicle: saline 100 % of control | dose: 150.0 mg/kg/injection, schedule: Q04DX003 (ip), vehicle: saline 96 % of control

N#CCN1CCCCCC1
inactive: dose: 5.0 mg/kg/injection, schedule: Q01DX009 (ip), vehicle: Klucel (hydroxypropylcellulose) (HPC) 102 % of control | dose: 10.0 mg/kg/injection, schedule: Q01DX009 (ip), vehicle: Klucel (hydroxypropylcellulose) (HPC) 98 % of control | dose: 10.0 mg/kg/injection, schedule: Q04DX003 (ip), vehicle: Klucel (hydroxypropylcellulose) (HPC) 98 % of control | dose: 20.0 mg/kg/injection, schedule: Q04DX003 (ip), vehicle: Klucel (hydroxypropylcellulose) (HPC) 91 % of control

C=C(Br)CNC(=O)CCC
inactive: dose: 5.0 mg/kg/injection, schedule: Q04DX003 (ip), vehicle: saline 92 % of control | dose: 10.0 mg/kg/injection, schedule: Q04DX003 (ip), vehicle: saline 97 % of control

Cc1ccc(OCC(=O)Nc2c(Cl)cc(Cl)cc2Cl)c(C)c1
inactive: [14] 92 % of control | [15] 89 % of control
